Read-outs that look alike come from different tables or passages of the source. Values belong to the compound of their own block, whether it stands above or below them.
What was measured:
[1] = tested on: NCI-H460 (human non-small cell lung carcinoma); experiment: PI3K viability assay, NCI-H460 cells; assay type: cell-based
Protocol: (§1) PI3K viability assays were carried out on the payloads and conjugates. HCT-116 (human colon carcinoma), NCI-H460 (human non-small cell lung carcinoma), and NCI-H1048 (small cell lung cancer) cells were treated with conjugates and payloads for 4 hours. After 4 hours, compounds were washed out and cells assayed for viability 72 hrs post wash out.

[2] = tested on: HCT-116 (human colon carcinoma); experiment: PI3K viability assay, HCT-116 cells; assay type: cell-based
Protocol: as §1

[3] = tested on: NCI-H1048 (small cell lung cancer); experiment: PI3K viability assay, NCI-H1048 cells; assay type: cell-based; conditions: Homo sapiens
Protocol: as §1

[4] = Stability of PARP inhibiting (olaparib) conjugates in plasma and tumor tissue, release of olaparib; assay type: in vitro ADME; conditions: for Release of olaparib in plasma and tumor: plasma and tumor tissues, FIG. 1A-E
Protocol: Stabilities of conjugates comprising PARP inhibitor olaparib and HSP90 binding moieties were studied and the conversions of the conjugates to Olaparib were monitored.
In one study, concentrations of Compounds 4, 5, 6 and olaparib released from them in plasma and tumor tissue were monitored (FIG. 1A, FIG. 1B, and FIG. 1C). The linkers were cleaved to release olaparib, thus concentrations of olaparib increased over time. Half times of Compounds 4, 5, and 6 were calculated. […]

[5] = tested on: HCT-116, NCI-H460, and NCI-H1048 cells; experiment: PI3K viability assays, summary over the three cell lines; assay type: cell-based, human; conditions: 4 hours treatment, viability 72 hrs post wash out
Protocol: as §1

Caspase-9 = experiment: PI3K Caspase-9 assay with HCT-116 cells; assay type: cell-based, human; conditions: 4 hour treatment, assayed 24, 48, 72 hrs
Protocol: Caspase-9 is activated during apoptosis and is an indicator of apoptosis and cytokine processing. PI3K Caspase-9 assay was conducted with HCT-116 cells. HCT-116 cells were treated with conjugates and payloads for 4 hours. After 4 hours, compounds were washed out and cells were assayed for Caspase-9 24, 48, 72, and 144 hrs. Untreated cells were not viable at 144 hrs. Caspase-9 levels 24 hours, 48 hours, and 72 hours after 4 hour treatment with Compound 10, Compound 12, Compound 13, PF-0461502, Compound 11, T-1634, and BAY80-6946 were shown in FIG. 3.

[6] = Stability of PI3K inhibiting conjugates at 37° C. in plasma and tumor homogenates
From the text: Stabilities of conjugates comprising PI3K inhibitors and HSP90 binding moieties were studied.

[7] = In vivo tumor PK study, HCT116 colon cancer tumor line mouse model; conditions: single dose at 0 hours, FIG. 4
Protocol: (§2) A tumor PK study was conducted with HSP90-binding conjugate Compound 12 in a HCT116 colon cancer tumor line mouse model. The payload on Compound 12 is the PI3K inhibitor PI-103. Both PI-103 and Compound 12 were given as a single dose at 0 hours to separate groups of mice and their concentrations in tumors were collected over time.

[8] = In vivo tumor PK study, MDA-MB-231 breast cancer tumor line mouse model
Protocol: as §2, with “MDA-MB-231 breast” for “HCT116 colon”

[9] = NCI-H460, 4 hours treatment, wash out, viability 72 hrs post wash out, Run 1, read-out: IC50 NCI-H460 Run 1
[10] = HCT-116, 4 hours treatment, wash out, viability 72 hrs post wash out, Run 1, read-out: IC50 HCT-116 Run 1
[11] = NCI-H1048, 4 hours treatment, wash out, viability 72 hrs post wash out, Run 1, read-out: IC50 NCI-H1048 Run 1
[12] = plasma, Table 1, read-out: Plasma t1/2 (converted)
[13] = tumor tissue, Table 1, read-out: Tumor t1/2 (converted)
[14] = plasma, Table 3, read-out: Plasma t1/2 (converted)
[15] = tumor tissue, Table 3, read-out: Tumor t1/2 (converted)
[16] = HCT-116, 4 hours treatment, wash out, viability 72 hrs post wash out, Run 2, read-out: IC50 HCT-116 Run 2
[17] = NCI-H1048, 4 hours treatment, wash out, viability 72 hrs post wash out, Run 2, read-out: IC50 NCI-H1048 Run 2
[18] = NCI-H460, 4 hours treatment, wash out, viability 72 hrs post wash out, Run 2, read-out: IC50 NCI-H460 Run 2
[19] = NCI-H460, read-out: IC50 NCI-H460 Run 2
[20] = HCT-116, read-out: IC50 HCT-116 Run 2
[21] = NCI-H1048, read-out: IC50 NCI-H1048 Run 2

SMILES: COc1c(OCCCN2CCOCC2)ccc2c1N=C(NC(=O)c1cnc(N)nc1)N1CCN=C21 [BAY80-6946, Copanlisib, reference compound]
IC50 [1, 9]: 0.62 µM
IC50 [2, 10]: 3.42 µM
IC50 [3, 11]: 0.13 µM

SMILES: CC(C)c1cc(-c2nnc(O)n2-c2ccc3c(ccn3CCC3CCN(CCC(C)(C)SSCCOC(=O)NCn4nc(Cc5ccc(F)c(C(=O)N6CCN(C(=O)C7CC7)CC6)c5)c5ccccc5c4=O)CC3)c2)c(O)cc1O [Compound 4]
Release of olaparib in plasma and tumor [4]: release olaparib in plasma and tumor
half-life [4, 12]: 4.5 h
half-life [4, 13]: 0.64 h

SMILES: CC(C)c1cc(-c2nnc(O)n2-c2ccc3c(ccn3CCC3CCN(CCC(C)(C)SSCCOC(=O)N(CCN(C)C)Cn4nc(Cc5ccc(F)c(C(=O)N6CCN(C(=O)C7CC7)CC6)c5)c5ccccc5c4=O)CC3)c2)c(O)cc1O [Compound 5]
Relative stability in plasma and tumor ([4]; plasma and tumor): more stable than Compound 4 and Compound 6 in both plasma and tumor
Release of olaparib in plasma and tumor [4]: release olaparib in plasma and tumor
half-life [4, 12]: 35 h
half-life [4, 13]: 4.5 h

SMILES: CC(C)c1cc(-c2nnc(O)n2-c2ccc3c(ccn3CCC3CCN(CCCSSCCOC(=O)N(CCN(C)C)Cn4nc(Cc5ccc(F)c(C(=O)N6CCN(C(=O)C7CC7)CC6)c5)c5ccccc5c4=O)CC3)c2)c(O)cc1O [Compound 6]
Release of olaparib in plasma and tumor [4]: release olaparib in plasma and tumor
half-life [4, 12]: 4.8 h
half-life [4, 13]: 0.27 h

SMILES: CC(C)c1cc(-c2nnc(O)n2-c2ccc3c(ccn3CCC3CCN(C(=O)Oc4cccc(-c5nc(N6CCOCC6)c6oc7ncccc7c6n5)c4)CC3)c2)c(O)cc1O [Compound 10]
IC50 [1, 9]: ~3220 µM
Activity in viability assays relative to payload [5]: appeared to lose activity
IC50 [2, 16]: ~15500 µM
IC50 [3, 11]: 40.4 µM
IC50 [3, 17]: ~9160 µM
Caspase-9 signal (Caspase-9): Lack or decrease in signal
Stability in plasma versus tumor homogenates ([6]; 37° C.): less stable in plasma than in tumor homogenates
Cleavage of carbamate groups ([6]; plasma): cleaved in plasma by carboxylesterase

SMILES: COc1ccc(-c2cc3c(C)nc(N)nc3n([C@H]3CC[C@H](OCCOC(=O)N4CCC(CCn5ccc6cc(-n7c(O)nnc7-c7cc(C(C)C)c(O)cc7O)ccc65)CC4)CC3)c2=O)cn1 [Compound 11]
IC50 [1, 9]: 3.64 µM
IC50 [1, 18]: 3.66 µM
IC50 [2, 10]: 10.2 µM
IC50 [2, 16]: 5.59 µM
IC50 [3, 11]: 1.77 µM
IC50 [3, 17]: 1.99 µM
Cleavage of carbamate groups [6]: cleaved in plasma by carboxylesterase
Stability in plasma versus tumor homogenates [6]: less stable in plasma than in tumor homogenates

SMILES: CC(C)c1cc(-c2nnc(O)n2-c2ccc(CN3CCN(C(=O)Oc4cccc(-c5nc(N6CCOCC6)c6oc7ncccc7c6n5)c4)CC3)cc2)c(O)cc1O [Compound 12]
IC50 [1, 19]: 1.95 µM
Activity in viability assays relative to payload [5]: retained activity similar to PI-103 payload
IC50 [2, 20]: 3.94 µM
IC50 [3, 21]: 1.27 µM
Concentrations in tumors over time [7]: accumulation of the conjugate, retention of the conjugate and sustained release of the payload over time
Caspase-9 signal (Caspase-9): appears to retain activity similar to payload (PI-103) and ligand (ganetespib)
Concentrations in tumors over time ([8]; single dose at 0 hours, MDA-MB-231 tumor, FIG. 5): accumulation of the conjugate, retention of the conjugate and sustained release of the payload over time

SMILES: CC(C)c1cc(-c2nnc(O)n2-c2ccc(CN3CCN(C(=O)NC(CSSCCNC(=O)Oc4cccc(-c5nc(N6CCOCC6)c6oc7ncccc7c6n5)c4)C(N)=O)CC3)cc2)c(O)cc1O (stereo not drawn) [Compound 13]
IC50 [1, 19]: 8.2 µM
Activity in viability assays relative to payload [5]: retained activity similar to PI-103 payload
IC50 [2, 20]: 10.7 µM
IC50 [3, 21]: 2.9 µM
Caspase-9 signal (Caspase-9): Lack or decrease in signal

SMILES: Oc1cccc(-c2nc(N3CCOCC3)c3oc4ncccc4c3n2)c1 [PI-103, reference compound]
IC50 [1, 9]: 2.85 µM
IC50 [1, 18]: 4.34 µM
IC50 [2, 10]: ~16500 µM
IC50 [3, 11]: 1.94 µM
IC50 [3, 17]: 2.5 µM
Concentrations in tumors over time [7]: detected at 1 hour and then fell below limit of detection
Concentrations in tumors over time ([8]; mouse, in vivo): detected at 1 hour and then fell to a low level at 24 h

Second part, the compound after the results:

Release of olaparib in plasma and tumor [4]: release olaparib in plasma and tumor
half-life [4, 14]: 43 h
half-life [4, 15]: 4 h
SMILES: CC(C)c1cc(-c2nnc(O)n2-c2ccc(CN3CCN(CCC(C)(C)SSCCOC(=O)N(CCN(C)C)Cn4nc(Cc5ccc(F)c(C(=O)N6CCN(C(=O)C7CC7)CC6)c5)c5ccccc5c4=O)CC3)cc2)c(O)cc1O [Compound 7]

Release of olaparib in plasma and tumor [4]: release olaparib in plasma and tumor
half-life [4, 14]: 46 h
half-life [4, 15]: 24 h
SMILES: CC(C)c1cc(-c2nnc(O)n2-c2ccc(CN3CCN(CCC(C)(C)SSc4ccc(COC(=O)N(CCN(C)C)Cn5nc(Cc6ccc(F)c(C(=O)N7CCN(C(=O)C8CC8)CC7)c6)c6ccccc6c5=O)cc4)CC3)cc2)c(O)cc1O [Compound 8]

IC50 [1, 9]: 0.19 µM
IC50 [2, 10]: 1.5 µM
IC50 [3, 11]: 0.21 µM
SMILES: COc1ncc(-c2ccc3nccc(-c4ccnnc4)c3c2)cc1NS(=O)(=O)c1ccc(F)cc1F [GSK-2126458, Omipalisib, reference compound]

IC50 [1, 9]: 8.98 µM
IC50 [1, 18]: 3.53 µM
IC50 [2, 10]: 45.4 µM
IC50 [2, 16]: 11.3 µM
IC50 [3, 11]: 3.36 µM
IC50 [3, 17]: 2.63 µM
SMILES: COc1ccc(-c2cc3c(C)nc(N)nc3n([C@H]3CC[C@H](OCCO)CC3)c2=O)cn1 [PF-04691502, reference compound]
